Inconclusive results and toxic doses are left out. Rule as the data show it: active = T/C of 150% or more; inactive = T/C below 125%.
System: L1210 leukemia ip in BDF1 mice, survival T/C
Assay: NCI In Vivo Anticancer Drug Screen. Data for tumor model L1210 Leukemia (intraperitoneal) in B6D2F1 (BDF1) mice
Conditions: endpoint: mean survival time, higher = longer survival
Method in brief: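 Transplantable tumor model; survival measured in treated vs vehicle control mice. Value = treated/control.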

[1] = dose: 100.0 mg/kg/injection, schedule: Q01DX009 (ip), vehicle: saline with Tween-80
[2] = dose: 100.0 mg/kg/injection, schedule: Q04DX002 (ip), vehicle: saline with Tween-80
[3] = dose: 200.0 mg/kg/injection, schedule: Q01DX009 (ip), vehicle: saline with Tween-80
[4] = dose: 200.0 mg/kg/injection, schedule: Q04DX002 (ip), vehicle: saline with Tween-80
[5] = dose: 400.0 mg/kg/injection, schedule: Q04DX002 (ip), vehicle: saline with Tween-80
[6] = dose: 100.0 mg/kg/injection, schedule: Q04DX003 (ip), vehicle: Klucel (hydroxypropylcellulose) (HPC)
[7] = dose: 200.0 mg/kg/injection, schedule: Q04DX003 (ip), vehicle: Klucel (hydroxypropylcellulose) (HPC)
[8] = dose: 400.0 mg/kg/injection, schedule: Q04DX003 (ip), vehicle: Klucel (hydroxypropylcellulose) (HPC)

Measured: T/C

CC1(C)N=C(N)N=C(N)N1CCCOc1ccc(NC(=O)Nc2cccc(S(=O)(=O)F)c2)cc1
inactive: dose: 25.0 mg/kg/injection, schedule: Q01DX001 (ip), vehicle: saline with Tween-80 102 % of control | dose: 50.0 mg/kg/injection, schedule: Q01DX001 (ip), vehicle: saline with Tween-80 100 % of control

CNC(=O)O/N=C/c1ccc([N+](=O)[O-])cc1
inactive: dose: 75.0 mg/kg/injection, schedule: Q01DX001 (ip), vehicle: saline 94 % of control | dose: 150.0 mg/kg/injection, schedule: Q01DX001 (ip), vehicle: saline 100 % of control

O=Cc1cccs1
inactive: [1] 104 % of control | [2] 93 % of control | [3] 107 % of control | [4] 100 % of control | dose: 400.0 mg/kg/injection, schedule: Q01DX009 (ip), vehicle: saline with Tween-80 118 % of control | [5] 96 % of control

Cc1[nH]c(N)nc(=S)c1CCCNc1ccc(C(=O)NC(CCC(=O)O)C(=O)O)cc1 (stereo unspecified)
inactive: dose: 50.0 mg/kg/injection, schedule: Q01DX001 (ip), vehicle: saline 104 % of control | dose: 100.0 mg/kg/injection, schedule: Q01DX001 (ip), vehicle: saline 98 % of control | dose: 100.0 mg/kg/injection, schedule: Q01DX009 (ip), vehicle: Klucel (hydroxypropylcellulose) (HPC) 93 % of control | [6] 93 % of control | dose: 200.0 mg/kg/injection, schedule: Q01DX001 (ip), vehicle: saline 101 % of control | dose: 200.0 mg/kg/injection, schedule: Q01DX009 (ip), vehicle: Klucel (hydroxypropylcellulose) (HPC) 104 % of control | [7] 93 % of control | dose: 400.0 mg/kg/injection, schedule: Q01DX001 (ip), vehicle: saline 98 % of control | dose: 400.0 mg/kg/injection, schedule: Q01DX009 (ip), vehicle: Klucel (hydroxypropylcellulose) (HPC) 98 % of control | [8] 88 % of control

CC1CN(Cc2ccccc2)C(=S)NC1=O (stereo unspecified)
inactive: dose: 25.0 mg/kg/injection, schedule: Q01DX Z (ip), vehicle: methylcellulose (MC) 89 % of control | dose: 50.0 mg/kg/injection, schedule: Q01DX Z (ip), vehicle: methylcellulose (MC) 98 % of control

Cc1[nH]c(=O)[nH]c(=O)c1S(=O)(=O)O
inactive: [6] 98 % of control | [7] 93 % of control | [8] 98 % of control

O=C(Nc1cccc(C(=O)O)c1)Nc1ccc(Cl)c(C(F)(F)F)c1
inactive: [1] 87 % of control | [3] 100 % of control

O/N=C/c1cccc(CC(O)(C(F)(F)F)C(F)(F)F)n1
inactive: dose: 50.0 mg/kg/injection, schedule: Q04DX002 (ip), vehicle: saline with Tween-80 103 % of control | dose: 100.0 mg/kg/injection, schedule: Q01DX001 (ip), vehicle: Klucel (hydroxypropylcellulose) (HPC) 98 % of control | [2] 88 % of control | dose: 200.0 mg/kg/injection, schedule: Q01DX001 (ip), vehicle: Klucel (hydroxypropylcellulose) (HPC) 98 % of control | [4] 109 % of control | dose: 400.0 mg/kg/injection, schedule: Q01DX001 (ip), vehicle: Klucel (hydroxypropylcellulose) (HPC) 87 % of control | [5] 106 % of control

CC(C)=CCC(=O)Nc1ccc(Cl)nn1
inactive: [6] 86 % of control | [7] 91 % of control | [8] 100 % of control

CC(C)C1CCC(NC(=O)NCCF)CC1 (stereo unspecified)
inactive: dose: 9.5 mg/kg/injection, schedule: Q01DX001 (ip), vehicle: other 105 % of control | dose: 19.0 mg/kg/injection, schedule: Q01DX001 (ip), vehicle: other 100 % of control | dose: 38.0 mg/kg/injection, schedule: Q01DX001 (ip), vehicle: other 102 % of control

FC(F)(F)C(F)(Cl)C(Cl)(Cl)C(F)(F)F (stereo unspecified)
inactive: dose: 100.0 mg/kg/injection, schedule: Q01DX009 (ip), vehicle: saline 97 % of control | dose: 100.0 mg/kg/injection, schedule: Q04DX003 (ip), vehicle: saline 100 % of control | dose: 200.0 mg/kg/injection, schedule: Q01DX009 (ip), vehicle: saline 97 % of control | dose: 200.0 mg/kg/injection, schedule: Q04DX003 (ip), vehicle: saline 101 % of control | dose: 400.0 mg/kg/injection, schedule: Q01DX009 (ip), vehicle: saline 97 % of control | dose: 400.0 mg/kg/injection, schedule: Q04DX003 (ip), vehicle: saline 90 % of control

Reference: PubChem BioAssay AID248 (DTP/NCI, 2004)
